Experimental data reported in paper PMC5457276, “Influence of Amphibian Antimicrobial Peptides and Short Lipopeptides on Bacterial Biofilms Formed on Contact Lenses” (Materials, 2016).
Read-outs that look alike come from different tables or passages of the source. Where a SMILES comes first, the peptide text is derived from it. Where no end group is shown, it is not given here. The star is where a group is joined. Palmitoyl = CCCCCCCCCCCCCCCC(=O)*

Legend:
[1] = system: Pseudomonas aeruginosa ATCC 9027 biofilm on contact lenses; assay type: cell-based; details: for Concentration eliminating P. aeruginosa from the lens surface (MBEC): ATCC 9027, 24 h; for Minimum biofilm eradication concentration (reduction of resazurin ≤10% ± 0.5%): P. aeruginosa, triplicate
Procedure: (§1) All selected strains were obtained from the Polish Collection of Microorganisms (Polish Academy of Science, Wroclaw, Poland). Four Gram-positive and three Gram-negative strains linked with CL-related infections lenses were tested (Table 5). The microorganisms were cultured in a Mueller Hinton Broth II (MHB, Biocorp, Warsaw, Poland) overnight, at 37 °C.
(§2) The CL and CL solutions used are commercially available. One-day CL (1-Day Acuvue Moist) containing Etafilcon A were obtained from Johnson and Johnson Vision Care (Jacksonsville, FL, USA). Four popular CL solutions were also tested (Table 6).
(§3) Biofilms of strains related with ocular infections were cultured on CL placed in polystyrene 24-well plates (Orange Scientific, Braine-l’Alleud, Belgium). Biomaterials were incubated at 37 °C in bacterial suspension in the Mueller Hinton Broth II (Biocorp, Warsaw, Poland) at initial inoculums of ca. 5 × 10^5 CFU/mL. After 24 h of incubation all of the CL were rinsed three times with a sterile phosphate buffer (AppliChem, Darmstadt, Germany). The lenses were then transferred into new wells with fresh MHB II. One-day biofilms were exposed to a pre-determined range of peptides concentration. […] Anti-biofilm activity of selected peptides was visualized using a cell-viability reagent, Resazurin (Sigma Aldrich, St. Louis, MO, USA). Upon contact with living cells the dye is metabolized by bacterial dehydrogenases resulting in the reduction of the blue resazurin to a pink resorufin. Positive controls contained CL immersed in bacterial suspensions without antimicrobials, while CL in a sterile culture medium served as negative controls. The minimum biofilm eradication concentration (MBEC) was read after a one-hour incubation with Resazurin (final concentration per sample = 0.005%) MBEC was determined as the lowest concentration at which the reduction of resazurin was lower or equal (10% ± 0.5%) as compared to positive (100%) and negative (0%) controls. All experiments were performed in triplicate.

[2] = system: Escherichia coli ATCC 25922 biofilm on contact lenses; assay type: cell-based; details: for Minimum biofilm eradication concentration (reduction of resazurin ≤10% ± 0.5%): E. coli, triplicate; for Concentration eradicating E. coli biofilms (MBEC): ATCC 25922, 24 h
Procedure: as §1, §2, §3

[3] = system: Staphylococcus epidermidis ATCC 14990 biofilm on contact lenses; test: Biofilm assay on contact lenses (MBEC, resazurin); assay type: cell-based; details: S. epidermidis, triplicate
Procedure: as §1, §2, §3

[4] = system: Streptococcus pyogenes PCM 465 biofilm on contact lenses; test: Biofilm assay on contact lenses (MBEC, resazurin); assay type: cell-based; details: S. pyogenes, triplicate
Procedure: as §1, §2, §3

[5] = system: Staphylococcus aureus ATCC 25923 biofilm on contact lenses; test: Biofilm assay on contact lenses (MBEC, resazurin); assay type: cell-based; details: S. aureus, triplicate
Procedure: as §1, §2, §3

[6] = system: Streptococcus pneumoniae ATCC 49619 biofilm on contact lenses; test: Biofilm assay on contact lenses (MBEC, resazurin); assay type: cell-based; details: S. pneumoniae, triplicate
Procedure: as §1, §2, §3

[7] = system: Staphylococcus aureus ATCC 25923; assay type: cell-based; details: S. aureus; same MIC in μM (in brackets); broth microdilution, MHB II, overnight at 37 °C, triplicate
Procedure: as §1
(§4) Peptide susceptibility tests on the reference bacterial strains were performed with the following procedures recommended by the Clinical and Laboratory Standard Institute (CLSI). The activity of five peptides was tested on the Mueller Hinton Broth II (Biocorp, Warsaw, Poland) using broth microdilution method on polystyrene 96-well plates (Kartell, Noviglio, Italy). […] The plates were incubated overnight at 37 °C. MIC was assumed as the lowest concentration at which bacterial growth was no longer visible. All experiments were performed in triplicate.

[8] = system: Streptococcus pneumoniae ATCC 49619; assay type: cell-based; details: S. pneumoniae; same MIC in μM (in brackets); broth microdilution, MHB II, overnight at 37 °C, triplicate
Procedure: as §1, §4

[9] = system: Escherichia coli ATCC 25922; assay type: cell-based; details: E. coli; same MIC in μM (in brackets); broth microdilution, MHB II, overnight at 37 °C, triplicate
Procedure: as §1, §4

[10] = system: Streptococcus pyogenes PCM 465; assay type: cell-based; details: S. pyogenes; same MIC in μM (in brackets); broth microdilution, MHB II, overnight at 37 °C, triplicate
Procedure: as §1, §4

[11] = system: Pseudomonas aeruginosa ATCC 9027; assay type: cell-based; details: P. aeruginosa; same MIC in μM (in brackets); broth microdilution, MHB II, overnight at 37 °C, triplicate
Procedure: as §1, §4

[12] = system: Staphylococcus epidermidis ATCC 14990; assay type: cell-based; details: S. epidermidis; same MIC in μM (in brackets); broth microdilution, MHB II, overnight at 37 °C, triplicate
Procedure: as §1, §4

HaCaT cells = details: cited from earlier work
Description: Our data reveal that AMPs might be promising antibacterial additives to CL solutions. However there are certain limitations and issues which need to be considered. The long-time stability of compounds in a water solution needs to be examined, but first of all the evaluation of toxicity towards human eye cells needs to be carried out. In the previous study tested amphibian peptides turned out to be safe towards HaCaT cells at their microbiologically-active concentrations. […] Considering the potenti ...

[13] = system: biofilms formed by Gram-positive bacteria on contact lenses; test: Biofilm assay on contact lenses (MBEC), summary over Gram-positive strains; assay type: cell-based
Procedure: as §1, §2, §3

[14] = system: planktonic bacteria, all tested strains; test: Minimum inhibitory concentration, summary over all tested strains; assay type: cell-based; details: summary of Table 1
Procedure: as §1, §4

[15] = 25 °C, one-day biofilm on contact lens (Etafilcon A), 24 h exposure in MHB II, resazurin read-out
[16] = 25 °C, same MBEC in μM (in brackets), biofilm on contact lens, 24 h exposure
[17] = 37 °C, one-day biofilm on contact lens (Etafilcon A), 24 h exposure in MHB II, resazurin read-out
[18] = 37 °C, same MBEC in μM (in brackets), biofilm on contact lens, 24 h exposure

Molecule	Concentration eliminating P. aeruginosa from the lens surface (MBEC) [1] [µg/mL]	Minimum biofilm eradication concentration (reduction of resazurin ≤10% ± 0.5%) [1, 15] [µg/mL]	Minimum biofilm eradication concentration (reduction of resazurin ≤10% ± 0.5%) [1, 16]	Minimum biofilm eradication concentration (reduction of resazurin ≤10% ± 0.5%) [1, 17] [µg/mL]	Minimum biofilm eradication concentration (reduction of resazurin ≤10% ± 0.5%) [1, 18]	Minimum biofilm eradication concentration (reduction of resazurin ≤10% ± 0.5%) [2, 15] [µg/mL]	Minimum biofilm eradication concentration (reduction of resazurin ≤10% ± 0.5%) [2, 16]	Minimum biofilm eradication concentration (reduction of resazurin ≤10% ± 0.5%) [2, 17] [µg/mL]	Minimum biofilm eradication concentration (reduction of resazurin ≤10% ± 0.5%) [2, 18]	Minimum biofilm eradication concentration (reduction of resazurin ≤10% ± 0.5%) [3, 15] [µg/mL]	Minimum biofilm eradication concentration (reduction of resazurin ≤10% ± 0.5%) [3, 16]	Minimum biofilm eradication concentration (reduction of resazurin ≤10% ± 0.5%) [3, 17] [µg/mL]	Minimum biofilm eradication concentration (reduction of resazurin ≤10% ± 0.5%) [3, 18]	Minimum biofilm eradication concentration (reduction of resazurin ≤10% ± 0.5%) [4, 15] [µg/mL]	Minimum biofilm eradication concentration (reduction of resazurin ≤10% ± 0.5%) [4, 16]	Minimum biofilm eradication concentration (reduction of resazurin ≤10% ± 0.5%) [4, 17] [µg/mL]	Minimum biofilm eradication concentration (reduction of resazurin ≤10% ± 0.5%) [4, 18]	Minimum biofilm eradication concentration (reduction of resazurin ≤10% ± 0.5%) [5, 15] [µg/mL]	Minimum biofilm eradication concentration (reduction of resazurin ≤10% ± 0.5%) [5, 16]	Minimum biofilm eradication concentration (reduction of resazurin ≤10% ± 0.5%) [5, 17] [µg/mL]	also measured
FLPLIGRVLSGIL-NH2 [Temporin A, reference compound]	512																				
CCCCCCCCCCCCCCCC(=O)N[C@@H](CCCNC(=N)N)C(=O)N[C@@H](CCCNC(=N)N)C(N)=O [Palm-RR-NH2] (Palmitoyl-Arg-Arg-NH2)		>512	(>644.1) μM	>512	(>644.1) μM	256	(322.1) μM	512	(644.1) μM	64	(80.5) μM	32	(40.3) μM	128	(161.0) μM	>512	(>644.1) μM	128	(161.0) μM	256	Minimum biofilm eradication concentration (reduction of resazurin ≤10% ± 0.5%) [5, 18]: (322.1) μM; Minimum biofilm eradication concentration (reduction of resazurin ≤10% ± 0.5%) [6, 15]: 64 µg/mL; Minimum biofilm eradication concentration (reduction of resazurin ≤10% ± 0.5%) [6, 16]: (80.5) μM; Minimum biofilm eradication concentration (reduction of resazurin ≤10% ± 0.5%) [6, 17]: 32 µg/mL; Minimum biofilm eradication concentration (reduction of resazurin ≤10% ± 0.5%) [6, 18]: (40.3) μM; Minimum inhibitory concentration [7]: (10.1) μM; Minimum inhibitory concentration [8]: (5.0) μM; Minimum inhibitory concentration [9]: (20.1) μM; Minimum inhibitory concentration [10]: (20.1) μM; Minimum inhibitory concentration [11]: (40.3) μM; Minimum inhibitory concentration [12]: (5.0) μM
CCCCCCCCCCCCCCCC(=O)N[C@@H](CCCCN)C(=O)N[C@@H](CCCCN)C(N)=O [Palm-KK-NH2]		>512	(>693.0) μM	>512	(>693.0) μM	256	(346.5) μM	256	(346.5) μM	32	(43.3) μM	32	(43.3) μM	32	(43.3) μM	512	(693.0) μM	32	(43.3) μM	64	Toxicity towards HaCaT cells / human keratinocytes (in words) (HaCaT cells): high toxicity; Concentrations eradicating biofilms formed by Gram-positive bacteria (MBEC) ([13]; at 37 °C): 32 to 512 µg/mL; Concentrations eradicating biofilms formed by Gram-positive bacteria (MBEC) ([13]; printed "below 25 °C"): 32 to 64 µg/mL; Concentration eradicating E. coli biofilms (MBEC) [2]: 256 µg/mL; Minimum biofilm eradication concentration (reduction of resazurin ≤10% ± 0.5%) [5, 18]: (86.6) μM; Minimum biofilm eradication concentration (reduction of resazurin ≤10% ± 0.5%) [6, 15]: 64 µg/mL; Minimum biofilm eradication concentration (reduction of resazurin ≤10% ± 0.5%) [6, 16]: (86.6) μM; Minimum biofilm eradication concentration (reduction of resazurin ≤10% ± 0.5%) [6, 17]: 64 µg/mL; Minimum biofilm eradication concentration (reduction of resazurin ≤10% ± 0.5%) [6, 18]: (86.6) μM; Minimum inhibitory concentration [7]: (10.8) μM; Minimum inhibitory concentration [8]: (10.8) μM; Minimum inhibitory concentration [9]: (10.8) μM; Minimum inhibitory concentration [10]: (21.7) μM; Minimum inhibitory concentration [11]: (21.7) μM; Minimum inhibitory concentration [12]: (5.4) μM
GIGKFLKKAKKFGKAFVKILKK-NH2 [Pexiganan]																					Concentrations inhibiting bacterial growth (MIC), range over all tested strains [14]: 1 to 8 µg/mL
GLFDVIKKVASVIGGL-NH2 [Citropin 1.1, reference compound]	512																				MBEC values, range over Gram-positive strains ([13]; both temperatures (25 °C and 37 °C)): 16 to 64 µg/mL; Concentration eradicating E. coli biofilms (MBEC) [2]: 128 to 256 µg/mL
